Test results taken from patent US20050095240A1, “NaCT as a target for lifespan expansion and weight reduction” (Medical College of Georgia Research, priority 2002, published 2005).
Where two headings read alike, the source gives them in different places.

How the values were obtained:
human NaCT = human NaCT (Homo sapiens, UniProt Q86YT5); test: Uptake via human NaCT expressed in HRPE cells; assay type: cell-based; conditions: for [^14C]-Citrate Uptake (cDNA-specific) / [^14C]-Citrate Uptake, %: [14C]-citrate 20 μM, unlabeled compound 2.5 mM; for [^14C]-Citrate Uptake, %: none = 100
rat NaCT [1] = molecular target: T1, rat NaCT (Rattus norvegicus, UniProt Q8CJ44); test: Rat NaCT in X. laevis oocytes, voltage clamp and charge-to-substrate ratio; assay type: cell-based; conditions: for Charge-to-substrate ratio: 50 μM substrate, −50 mV, 10 min
T1 sequence (Q8CJ44 1-572): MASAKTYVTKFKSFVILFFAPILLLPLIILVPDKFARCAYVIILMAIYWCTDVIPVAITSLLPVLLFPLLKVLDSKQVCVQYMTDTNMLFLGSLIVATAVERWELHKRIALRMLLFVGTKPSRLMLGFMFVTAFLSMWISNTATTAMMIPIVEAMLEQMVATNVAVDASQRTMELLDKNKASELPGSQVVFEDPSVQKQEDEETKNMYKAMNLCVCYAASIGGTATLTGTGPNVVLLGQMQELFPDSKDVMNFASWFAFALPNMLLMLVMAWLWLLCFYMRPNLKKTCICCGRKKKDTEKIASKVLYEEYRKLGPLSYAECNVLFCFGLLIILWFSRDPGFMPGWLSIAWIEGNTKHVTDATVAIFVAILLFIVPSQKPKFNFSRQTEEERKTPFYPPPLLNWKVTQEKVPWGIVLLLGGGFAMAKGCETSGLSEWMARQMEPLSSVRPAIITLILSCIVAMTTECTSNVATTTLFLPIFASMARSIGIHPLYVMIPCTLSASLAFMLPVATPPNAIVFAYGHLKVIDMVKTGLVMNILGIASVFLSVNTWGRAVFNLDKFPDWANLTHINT

hNaDC3 = molecular target: T2, hNaDC3 (Homo sapiens, UniProt Q8WWT9)
T2 sequence (Q8WWT9 1-602): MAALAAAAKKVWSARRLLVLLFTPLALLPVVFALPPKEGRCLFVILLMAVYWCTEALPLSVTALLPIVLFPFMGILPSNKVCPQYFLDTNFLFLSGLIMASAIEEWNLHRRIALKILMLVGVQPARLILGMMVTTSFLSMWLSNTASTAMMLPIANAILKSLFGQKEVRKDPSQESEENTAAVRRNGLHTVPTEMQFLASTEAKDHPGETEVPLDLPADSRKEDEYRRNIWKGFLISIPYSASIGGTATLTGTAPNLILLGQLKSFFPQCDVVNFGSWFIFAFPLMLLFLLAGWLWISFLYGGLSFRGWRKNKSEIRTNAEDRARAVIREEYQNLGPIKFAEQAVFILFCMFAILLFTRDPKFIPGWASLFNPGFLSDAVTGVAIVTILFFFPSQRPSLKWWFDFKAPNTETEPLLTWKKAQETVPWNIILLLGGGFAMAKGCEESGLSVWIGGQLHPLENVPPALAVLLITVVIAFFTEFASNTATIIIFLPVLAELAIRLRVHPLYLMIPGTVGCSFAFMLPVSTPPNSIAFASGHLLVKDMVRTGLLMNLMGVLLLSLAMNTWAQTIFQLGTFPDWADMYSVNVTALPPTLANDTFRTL

zebrafish NaCT = zebrafish NaCT (Danio rerio, UniProt A0A2R8QQN0, K78Q); test: Citrate uptake via zebrafish NaCT expressed in HRPE cells; assay type: cell-based
rat NaCT [2] = molecular target: T1, rat NaCT; test: Uptake via rat NaCT expressed in HRPE cells; assay type: cell-based; conditions: for [^14C]Citrate uptake (cDNA-specific) / [^14C]Citrate uptake, %: [14C]citrate 14 μM, unlabeled compound 2.5 mM; for [^14C]Citrate uptake, %: none = 100; for Uptake in rat NaCT cDNA-transfected cells vs vector alone: succinate 80 nM, pyruvate 135 μM, citrate 35 μM, Na+ gradient
mouse NaCT = molecular target: T3, mouse NaCT (Mus musculus, UniProt Q67BT3); test: Transport via mouse NaCT expressed in HRPE cells; assay type: cell-based; conditions: for [^3H]-Succinate transport (NaCT-specific) / [^3H]-Succinate transport, %: [3H]-succinate 0.1 μM; for [^3H]-Succinate transport (NaCT-specific) / [^3H]-Succinate transport, % / [^14C]-Citrate transport (NaCT-specific) / [^14C]-Citrate transport, %: substrate analog 2 mM; for [^3H]-Succinate transport, % / [^14C]-Citrate transport, %: control = 100; for [^14C]-Citrate transport (NaCT-specific) / [^14C]-Citrate transport, %: [14C]-citrate 10 μM
T3 sequence (Q67BT3 1-572): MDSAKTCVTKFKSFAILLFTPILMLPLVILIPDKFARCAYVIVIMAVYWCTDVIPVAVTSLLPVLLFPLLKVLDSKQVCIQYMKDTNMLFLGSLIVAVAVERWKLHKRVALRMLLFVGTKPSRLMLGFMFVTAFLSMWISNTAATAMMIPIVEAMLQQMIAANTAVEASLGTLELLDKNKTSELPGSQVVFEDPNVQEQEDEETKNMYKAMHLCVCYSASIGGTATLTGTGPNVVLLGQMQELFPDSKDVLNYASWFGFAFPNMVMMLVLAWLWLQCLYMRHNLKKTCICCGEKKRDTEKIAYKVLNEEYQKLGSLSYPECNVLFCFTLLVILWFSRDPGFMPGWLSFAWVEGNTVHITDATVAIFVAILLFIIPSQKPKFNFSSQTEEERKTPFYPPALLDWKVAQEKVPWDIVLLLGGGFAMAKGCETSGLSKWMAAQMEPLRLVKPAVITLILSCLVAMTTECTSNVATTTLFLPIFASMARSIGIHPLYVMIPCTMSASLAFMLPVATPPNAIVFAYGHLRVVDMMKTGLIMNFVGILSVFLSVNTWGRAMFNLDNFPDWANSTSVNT

drIndy = drIndy (Drosophila melanogaster, UniProt Q9VVT2); conditions: for % Control of cDNA-specific [^3H]succinate uptake / cDNA-specific [^3H] succinate uptake: [3H]succinate 40 nM, inhibitor 2.5 mM; for cDNA-specific [^3H] succinate uptake: NaCl buffer pH 7.5; for Uptake in drIndy cDNA-transfected cells vs vector alone / Succinate uptake mediated by drIndy: succinate 40 nM
[3] = presence of Na+, citrate 35 μM, pyruvate 135 μM

Chain of human NaCT (Q86YT5 whole entry): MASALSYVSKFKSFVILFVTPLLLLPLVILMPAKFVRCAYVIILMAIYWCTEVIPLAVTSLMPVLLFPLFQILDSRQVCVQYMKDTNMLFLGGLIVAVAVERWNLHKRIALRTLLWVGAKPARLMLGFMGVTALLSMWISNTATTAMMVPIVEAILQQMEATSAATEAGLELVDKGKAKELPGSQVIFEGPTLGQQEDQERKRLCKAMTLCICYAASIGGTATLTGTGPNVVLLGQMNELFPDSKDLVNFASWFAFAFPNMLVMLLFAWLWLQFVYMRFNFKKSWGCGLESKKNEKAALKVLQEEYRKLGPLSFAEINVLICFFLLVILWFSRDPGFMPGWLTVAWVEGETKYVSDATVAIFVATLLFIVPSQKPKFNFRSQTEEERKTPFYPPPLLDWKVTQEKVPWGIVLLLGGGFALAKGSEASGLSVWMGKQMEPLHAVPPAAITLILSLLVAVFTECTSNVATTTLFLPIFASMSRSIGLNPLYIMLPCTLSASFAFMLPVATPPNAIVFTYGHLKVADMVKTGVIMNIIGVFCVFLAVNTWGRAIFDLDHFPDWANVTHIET
Chain of drIndy (Q9VVT2 19-590): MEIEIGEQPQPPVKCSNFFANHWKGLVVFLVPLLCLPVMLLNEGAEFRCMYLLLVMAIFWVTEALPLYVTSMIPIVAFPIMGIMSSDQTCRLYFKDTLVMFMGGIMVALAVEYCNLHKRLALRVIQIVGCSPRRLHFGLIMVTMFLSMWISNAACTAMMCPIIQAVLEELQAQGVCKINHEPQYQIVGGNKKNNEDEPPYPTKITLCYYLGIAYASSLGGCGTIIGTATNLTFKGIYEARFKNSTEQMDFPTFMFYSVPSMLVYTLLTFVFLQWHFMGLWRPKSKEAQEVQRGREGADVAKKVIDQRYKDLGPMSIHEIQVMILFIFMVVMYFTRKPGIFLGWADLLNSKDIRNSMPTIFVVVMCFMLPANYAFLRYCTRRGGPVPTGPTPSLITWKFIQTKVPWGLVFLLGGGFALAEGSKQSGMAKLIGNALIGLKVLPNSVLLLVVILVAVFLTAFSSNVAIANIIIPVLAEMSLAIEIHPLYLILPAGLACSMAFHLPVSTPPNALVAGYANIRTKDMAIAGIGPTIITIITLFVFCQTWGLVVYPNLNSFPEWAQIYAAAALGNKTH
Chain of zebrafish NaCT (A0A2R8QQN0 2-582 K78Q): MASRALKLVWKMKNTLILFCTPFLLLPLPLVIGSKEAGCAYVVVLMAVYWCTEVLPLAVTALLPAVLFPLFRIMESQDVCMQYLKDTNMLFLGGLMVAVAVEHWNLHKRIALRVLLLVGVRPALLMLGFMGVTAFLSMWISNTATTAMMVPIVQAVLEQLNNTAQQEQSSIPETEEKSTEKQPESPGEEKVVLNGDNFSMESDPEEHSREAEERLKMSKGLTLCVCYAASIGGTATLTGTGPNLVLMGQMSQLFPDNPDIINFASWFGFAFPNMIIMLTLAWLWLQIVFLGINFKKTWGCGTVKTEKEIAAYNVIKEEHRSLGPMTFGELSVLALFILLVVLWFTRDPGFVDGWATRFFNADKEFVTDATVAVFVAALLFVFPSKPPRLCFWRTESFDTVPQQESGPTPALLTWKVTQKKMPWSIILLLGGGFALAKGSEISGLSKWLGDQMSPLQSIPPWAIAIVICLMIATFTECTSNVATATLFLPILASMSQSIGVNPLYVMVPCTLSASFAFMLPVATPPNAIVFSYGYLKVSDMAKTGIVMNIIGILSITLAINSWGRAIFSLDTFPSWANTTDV

Row | Structure (SMILES) | IC50 (human NaCT) [mM] | [^14C]-Citrate Uptake (cDNA-specific) (human NaCT) [pmol/10^6 cells/min] | [^14C]-Citrate Uptake, % (human NaCT) [%] | Charge-to-substrate ratio (rat NaCT [1]) | IC50 (zebrafish NaCT) [µM] | IC50 (rat NaCT [2]) [µM] | Ki (rat NaCT [2]) [µM] | [^14C]Citrate uptake (cDNA-specific) (rat NaCT [2]) [Pmol/10^6 cells/min] | [^14C]Citrate uptake, % (rat NaCT [2]) [%] | Uptake in rat NaCT cDNA-transfected cells vs vector alone (rat NaCT [2]) | Maximal velocity (Vmax) (mouse NaCT) [pmol/10^6 cells/min] | Michaelis-Menten constant (Kt) for transport via mouse NaCT (mouse NaCT) [µM] | [^3H]-Succinate transport (NaCT-specific) (mouse NaCT) [pmol/10^6 cells/min] | [^3H]-Succinate transport, % (mouse NaCT) [%] | [^14C]-Citrate transport (NaCT-specific) (mouse NaCT) [pmol/10^6 cells/min] | [^14C]-Citrate transport, % (mouse NaCT) [%] | Transport in mouse NaCT cDNA-transfected cells vs vector alone (mouse NaCT; succinate 50 nM, citrate 20 μM) [fold] | % Control of cDNA-specific [^3H]succinate uptake (drIndy) [%] | cDNA-specific [^3H] succinate uptake (drIndy) [fmol/106 cells per min] | Uptake in drIndy cDNA-transfected cells vs vector alone (drIndy; [3]) | further results
1 | O=C(O)CC(O)(CC(=O)O)C(=O)O [Citrate] | 0.688 ± 0.15 | 7.7 ± 0.7 | 16 | 1 | 30 ± 4 | 28 ± 4 | 16 ± 2 | 1.5 ± 0.1 | 1 | approximately 90 fold | 118±6 | 22 ± 2 | 0.004 ± 0.001 | 3 | 0.7 ± 0.1 | 2 | 20.2 | 13 | 18.6 ± 3.0 | approximately 30 fold | Kt for citrate via human NaCT in the presence of Li+ (human NaCT; 10 mM Li+): 95 ± 15 µM; Uptake in human NaCT cDNA-transfected cells vs vector alone (human NaCT; citrate 20 μM, NaCl): about 23 fold; Affinity of human NaCT for citrate less than that of rat NaCT (human NaCT; identical assay conditions): about 30 fold; Kt (Michaelis-Menten constant) for citrate uptake via human NaCT (human NaCT; wild type, absence of Li+): 604 ± 73 µM; Currents in rat NaCT oocytes compared to mouse NaCT (rat NaCT [1]; 0.5 mM citrate): 3 fold; Citrate-induced current (rat NaCT [1]; 0.5 mM citrate, three oocytes): 87±8 nA; Lower affinity of hNaDC3 than drIndy for citrate (hNaDC3): 20 fold; Km (zebrafish NaCT; read-out: Michaelis constant for citrate uptake, hrpe cells, 30 min): 40 ± 4 µM; Kt (Michaelis-Menten constant) for citrate uptake via rat NaCT (rat NaCT [2]): 18 ± 4 µM; Transport of citrate in cDNA-transfected cells (mouse NaCT; citrate 20 μM): 48.4±1.0 pmol/10^6 cells/min
2 | O=C(O)CCC(=O)O [Succinate, succinate] | 1.92 ± 0.48 | 32.1 ± 3.6 | 67 | 2 | 51 ± 9 | 172 ± 24 | 98 ± 14 | 5.7 ± 0.2 | 5 | about 7 fold | 80±5 | 33 ± 4 | 0.007 ± 0.003 | 5 | 0.1 ± 0.1 | 1 | 7.8 | 6 | 4.6 ± 0.4 | 20 fold | Uptake in hNaDC3 cDNA-transfected cells vs vector (hNaDC3; succinate 40 nM, presence of Na+): 200 fold; Affinity of rat NaCT for succinate lower than for citrate (rat NaCT [2]): 6 fold; Succinate uptake at physiological concentrations (rat NaCT [2]; medium with 135 μM citrate and 40 μM succinate): 0.005±0.001 nmol/10^6 cells/minute; Transport of succinate in cDNA-transfected cells (mouse NaCT; succinate 50 nM): 42.7±4.6 fmol/10^6 cells/min; Uptake in drIndy cDNA-transfected cells vs vector alone (drIndy; absence of Na+): 15 fold; Km (drIndy; read-out: Michaelis-Menten constant (Km) for transport via drIndy, presence of Na+): 40 ± 4 µM; Succinate uptake mediated by drIndy (drIndy; pH 5): 52±2 fmol/10^6 cells per minute; Succinate uptake mediated by drIndy (drIndy; pH 8): 127±5 fmol/10^6 cells per minute
